Measurements from article PMC12309256 (Current Research in Microbial Sciences, 2025).

Test system: AsDddY
Assay: HPLC of acrylate, initial rates, nonlinear Michaelis-Menten fit
Format: biochemical, Acinetobacter sp. ZS25
Settings: pH 8.0, 50 °C; 0.5 nM enzyme; DMSP 1-20 mM

Km: 2600 µM
SMILES: C[S+](C)CCC(=O)[O-] [DMSP, dimethylsulfoniopropionate]
